Experimental data: US20170314033A1, “HERBICIDE-RESISTANT TARAXACUM KOK-SAGHYZ AND TARAXACUM BREVICORNICULATUM” (Ohio State Innovation Foundation, priority 2016, published 2017)

Legend:
non-transgenic TK = assay: kanamycin selection, elimination of non-transgenic TK; format: in vivo, Taraxacum kok-saghyz; details: ½ MS medium, data not shown
Experimental: (§1) Roots then were blotted dry on filter paper and transferred to co-culture medium (solid 1⁄2 MS medium with 200 μm acetosyringone). After 3 days of co-culture with agrobacteria, root fragments were washed sequentially with water and liquid 1⁄2 MS medium with 400 mg L^-1 Timentin, and then transferred to solid 1⁄2 MS medium with 400 mg L^-1 Timentin. […] After 3 weeks further selection, transgene events were validated in selected plants. Root fragments of TK and TB were also inoculated with A. rhizogenes […] wild type using the same method. After recovery, root fragments were transferred to 1⁄2 MS medium with 400 mg L^-1 Timentin for regeneration. Approximately 30 root fragments were used for each replicate and three replicates were used for each treatment. […] Transgene presence was validated by PCR analysis (FIGS. 5A and B) and transgene expression at the transcription level was confirmed by RT-PCR (FIGS. 6A and B) using leaf tissue.

non-transgenic TB = assay: kanamycin selection, elimination of non-transgenic TB; format: in vivo, T. brevicorniculatum; details: ½ MS medium, data not shown
Experimental: as §1

[1] = tested on: transgenic herbicide-resistant rubber-producing dandelions expressing the bar gene; assay: glufosinate treatment of mature transgenic (bar gene) plants; format: in vivo, Taraxacum kok-saghyz and Taracum brevicorniculatum; details: for survival rate: formulated under the brand BASTA, mature transgenic plants
Excerpt: Applicants show the successful generation of rubber-producing dandelions species, which display resistance to broad leaf herbicide glufosinate. Using similar methods as described in Example 1, transgenic plants were generated using Agrobacterium tumafaciens-mediated transformation of leaf discs or root fragments, followed by regeneration of transgenic plants, which were then acclimated and transferred to pots within greenhouses. The bar gene, was expressed singly or in combination with other genes of interest in two rubber-producing dandelion species, Taraxacum kok-saghyz and Taracum brevicorniculatum. Table 1 describes the list of gene constructs used for the generation of transgenic herbicide-resistant dandelions.
Confirmation of a transgenic event was validated by PCR and resistance confirmed through treatment of mature transgenic plants with varying doses of glufosinate (e.g., 25 mg/L, 50 mg/L, 100 mg/L, 200 mg/L, etc.) formulated under the brand BASTA®. Treatment of plants with glufosinate at 25 mg/L yielded a 100% survival rate, 50 mg/L yielded a 50% survival rate, 150 mg/L yielded a 100% survival rate, and 200 mg/L yielded a 50% survival rate.

[2] = tested on: wild-type plants (dandelions); assay: glufosinate exposure of wild-type dandelions; format: in vivo; details: FIG. 11
Excerpt: FIG. 11: Comparison of wild-type dandelions and exemplary herbicide-resistant rubber-producing dandelions after exposure to herbicide.

Row | Structure (SMILES) | kanamycin concentration effective at eliminating non-transgenic plants (non-transgenic TK) [mg/L] | kanamycin concentration effective at eliminating non-transgenic plants (non-transgenic TB) [mg/L] | herbicide tolerance after exposure to glufosinate ([1]; exemplary dandelions of the invention, FIG. 11) | injury as a result of exposure to glufosinate ([1]; exemplary plant of the invention, FIGS. 9-10) | survival rate ([1]; glufosinate at 25 mg/L) [%] | survival rate ([1]; glufosinate at 50 mg/L) [%] | survival rate ([1]; glufosinate at 150 mg/L) [%] | survival rate ([1]; glufosinate at 200 mg/L) [%] | injury when exposed to glufosinate [2]
1 | NC[C@H]1O[C@H](O[C@H]2[C@H](O)[C@@H](O[C@H]3O[C@H](CO)[C@@H](O)[C@H](N)[C@H]3O)[C@H](N)C[C@@H]2N)[C@H](O)[C@@H](O)[C@@H]1O [kanamycin] | 10 | 20 |  |  |  |  |  |  | 
2 | CP(=O)(O)CCC(N)C(=O)O (stereo not drawn) [glufosinate] |  |  | varying degrees herbicide tolerance | little to no injury | 100 | 50 | 100 | 50 | significant injury and/or death
